Calls of active or inactive are those of the source. The rule behind the calls is not given here.
Legend:
Assay type in all cases: functional, organism-based
[1] = test system: Rattus norvegicus; assay: Androgenic activity in Wistar rat assessed as weight of prostate at 40 mg/kg of corporal weight, sc after 7 days by animal castration method; parameters: dose 40 mg/kg; settings: Prostate gland
[2] = test system: Rattus norvegicus; assay: Androgenic activity in Wistar rat assessed as weight of prostate at 20 mg/kg of corporal weight, sc after 7 days by animal castration method; parameters: dose 20 mg/kg; settings: Prostate gland
[3] = test system: Rattus norvegicus; assay: Androgenic activity in Wistar rat assessed as weight of prostate at 10 mg/kg of corporal weight, sc after 7 days by animal castration method; parameters: dose 10 mg/kg; settings: Prostate gland
[4] = test system: Rattus norvegicus; assay: Anabolic activity in Wistar rat assessed as weight of levator ani muscle at 10 mg/kg of corporal weight, sc after 7 days by animal castration method; parameters: dose 10 mg/kg
[5] = test system: Rattus norvegicus; assay: Anabolic activity in Wistar rat assessed as weight of levator ani muscle at 20 mg/kg of corporal weight, sc after 7 days by animal castration method; parameters: dose 20 mg/kg
[6] = test system: Rattus norvegicus; assay: Androgenic activity in Wistar rat assessed as weight of seminal vesicle at 40 mg/kg of corporal weight, sc after 7 days by animal castration method; parameters: dose 40 mg/kg
[7] = test system: Rattus norvegicus; assay: Androgenic activity in Wistar rat assessed as weight of seminal vesicle at 20 mg/kg of corporal weight, sc after 7 days by animal castration method; parameters: dose 20 mg/kg
[8] = test system: Rattus norvegicus; assay: Androgenic activity in Wistar rat assessed as weight of seminal vesicle at 10 mg/kg of corporal weight, sc after 7 days by animal castration method; parameters: dose 10 mg/kg
[9] = test system: Rattus norvegicus; assay: Anabolic activity in Wistar rat assessed as weight of levator ani muscle at 40 mg/kg of corporal weight, sc after 7 days by animal castration method; parameters: dose 40 mg/kg

Structure (SMILES) | Activity [1] | Activity [2] | Activity [3] | Activity [4] | Activity [5] | Activity [6] | Activity [7] | Activity [8] | Activity [9]
CC(=O)O[C@H]1CC[C@@]2(C)[C@@H](CC[C@H]3[C@@H]4CC[C@H](OC(C)=O)[C@@]4(C)C[C@H](O)[C@@]32F)C1 | Active | Active | – | – | – | – | – | – | –
CCC(=O)O[C@H]1CC[C@H]2[C@@H]3CC[C@H]4C[C@@H](OC(C)=O)CC[C@]4(C)[C@@]3(F)[C@@H](O)C[C@]12C | – | Active | Active | Active | Active | – | – | – | –
CC(C)C(=O)O[C@H]1CC[C@H]2[C@@H]3CC[C@H]4C[C@@H](O)CC[C@]4(C)[C@@]3(F)[C@@H](O)C[C@]12C | – | Active | Active | – | – | inactive | inactive | inactive | –
CC(=O)O[C@H]1CC[C@@]2(C)[C@@H](CC[C@H]3[C@@H]4CCC(=O)[C@@]4(C)C[C@H](O)[C@@]32F)C1 | Active | Active | – | inactive | inactive | inactive | inactive | inactive | inactive
CCCCCCC(=O)O[C@H]1CC[C@H]2[C@@H]3CC[C@H]4C[C@@H](O)CC[C@]4(C)[C@@]3(F)[C@@H](O)C[C@]12C | inactive | inactive | inactive | – | – | inactive | inactive | inactive | –
C[C@]12CC[C@H](O)C[C@@H]1CC[C@H]1[C@@H]3CCC(=O)[C@@]3(C)C[C@H](O)[C@@]12F | inactive | inactive | inactive | – | – | inactive | inactive | inactive | –
CC(=O)O[C@H]1CC[C@@]2(C)[C@@H](CC[C@H]3[C@@H]4CC[C@H](O)[C@@]4(C)C[C@H](O)[C@@]32F)C1 | – | – | – | – | Active | – | – | inactive | Active

From ChEMBL document CHEMBL1155283, “Synthesis and anabolic/androgenic evaluation of novel 9alpha-fluorosteroids” (Eur J Med Chem, 2009)
